{"source": "ChEMBL document CHEMBL1140825", "about": "“Cy3-3-acylcholine: a fluorescent analogue of acetylcholine for single molecule detection” (Bioorg Med Chem Lett, 2008)", "key": {"[1]": {"test_system": "Tetronarce californica", "test": "Displacement of non fluorescent acetylcholine from torpedo californica nACh receptor"}, "[2]": {"target": "Neuronal acetylcholine receptor subunit alpha-4 (Gallus gallus) (UniProt P09482)", "sequence (P09482 whole entry)": "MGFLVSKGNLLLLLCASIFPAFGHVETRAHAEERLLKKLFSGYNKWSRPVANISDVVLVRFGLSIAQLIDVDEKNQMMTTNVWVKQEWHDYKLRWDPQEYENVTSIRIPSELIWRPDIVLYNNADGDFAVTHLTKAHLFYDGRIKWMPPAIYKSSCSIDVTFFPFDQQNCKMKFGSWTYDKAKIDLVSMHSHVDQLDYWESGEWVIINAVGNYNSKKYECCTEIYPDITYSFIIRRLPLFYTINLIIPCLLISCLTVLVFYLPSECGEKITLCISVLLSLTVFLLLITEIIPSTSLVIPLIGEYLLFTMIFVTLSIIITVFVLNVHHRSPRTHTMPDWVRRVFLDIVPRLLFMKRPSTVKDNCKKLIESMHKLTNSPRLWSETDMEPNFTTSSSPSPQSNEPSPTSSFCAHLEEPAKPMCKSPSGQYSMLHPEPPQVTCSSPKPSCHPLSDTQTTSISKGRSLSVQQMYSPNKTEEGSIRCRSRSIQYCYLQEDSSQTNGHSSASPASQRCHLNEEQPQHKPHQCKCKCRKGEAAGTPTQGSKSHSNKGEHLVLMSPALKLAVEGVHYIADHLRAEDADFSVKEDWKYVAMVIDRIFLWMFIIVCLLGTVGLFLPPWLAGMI", "test": "Agonist activity at chicken nACh receptor alpha4beta2 expressed in Xenopus laevis oocytes assessed as time taken for current to decay from its peak to 50% at 100 nM by two-electrode voltage clamp assay", "assay_type": "functional, cell-based", "conditions": "Oocyte"}, "[3]": {"test_system": "Tetronarce californica", "test": "Binding affinity to Torpedo californica nACh receptor in reconstituted diphytanoylphosphatidylcholine/cholesterol vesicles"}}, "note": "Active and inactive are the calls of the source. The calls are words filed in the database; no cut-off is given here."}
{"smiles": "CCN1/C(=C/C=C/C2=[N+](CCCCCC(=O)NCCCC(=O)OCC[N+](C)(C)C)c3ccc(S(=O)(=O)[O-])cc3C2(C)C)C(C)(C)c2cc(S(=O)(=O)[O-])ccc21", "values": [{"measurement": "Activity", "setting": "[1]", "result": "Active"}, {"measurement": "T1/2", "setting": "[2]", "result": 25, "unit": "s"}, {"measurement": "Activity", "setting": "[3]", "result": "Active"}]}
